# Data as given in publication PMC9775191, “A Subset Screen of the Compounds Australia Scaffold Library Identifies 7-Acylaminodibenzoxazepinones as Potent and Selective Hits for Anti-Giardia Drug Discovery” (Biomedicines, 2022).
# Tested on: G. duodenalis BRIS/91/HEPU/1279
# Experiment: Primary Giardia screen at 10 µM (live-cell imaging, automated counting)
# Assay type: cell-based, Giardia duodenalis
# Conditions: 24 h
# Procedure, shortened: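 One concentration, 10 μM, is screened per compound in singlicate under microaerophilic gas (3% O2, 5% CO2, N2). Inhibition comes from automated image-based counts at 24 and 48 h, relative to 0.2% DMSO controls.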
row,SMILES,Average % Inhibition 24h
1,Fc1cccc(Nc2c3c(nc4ccccc24)CCC3)c1 [SN00784170],2.3%
2,Cc1nc(N(C)C)cc(N2CCN(C(=O)Nc3cccc(C(F)(F)F)c3)CC2)n1 [SN00786482],10.6%
3,Cc1c(C(=O)Nc2cc(-c3ccncc3)n[nH]2)cccc1[N+](=O)[O-] [SN00776775],6.4%

# Same assay, conditions: 24 h, first singlicate assay
row,SMILES,% Inhibition n=1 24h
1,Fc1cccc(Nc2c3c(nc4ccccc24)CCC3)c1 [SN00784170],4.6%
2,Cc1nc(N(C)C)cc(N2CCN(C(=O)Nc3cccc(C(F)(F)F)c3)CC2)n1 [SN00786482],15.1%
3,Cc1c(C(=O)Nc2cc(-c3ccncc3)n[nH]2)cccc1[N+](=O)[O-] [SN00776775],12.8%

# Same assay, conditions: 24 h, re-assessment
row,SMILES,% Inhibition n=2 24h
1,Fc1cccc(Nc2c3c(nc4ccccc24)CCC3)c1 [SN00784170],0.0%
2,Cc1nc(N(C)C)cc(N2CCN(C(=O)Nc3cccc(C(F)(F)F)c3)CC2)n1 [SN00786482],6.1%
3,Cc1c(C(=O)Nc2cc(-c3ccncc3)n[nH]2)cccc1[N+](=O)[O-] [SN00776775],0.0%

# Same assay, conditions: 48 h
row,SMILES,Average % Inhibition 48h
1,Fc1cccc(Nc2c3c(nc4ccccc24)CCC3)c1 [SN00784170],55.5%
2,Cc1nc(N(C)C)cc(N2CCN(C(=O)Nc3cccc(C(F)(F)F)c3)CC2)n1 [SN00786482],29.2%
3,Cc1c(C(=O)Nc2cc(-c3ccncc3)n[nH]2)cccc1[N+](=O)[O-] [SN00776775],21.4%

# Same assay, conditions: 48 h, first singlicate assay
row,SMILES,% Inhibition n=1 48h
1,Cc1cccc(NC(=O)NC2CCN(c3nc(C)cc(C)n3)CC2)c1 [SN00786006],33.8%
2,COc1ccc(NC(=O)C2CCn3c(nc4ccccc43)C2)cc1Cl (centres unmarked) [SN00789545],0.0%
3,NC1=C(c2nc3ccccc3s2)CC(=O)N1C1CC1 [SN00776353],0.0%
4,O=C(C(c1ccccc1)c1ccccc1)N1CCCC(c2nnc3n2CCCCC3)C1 (centres unmarked) [SN00771924],8.5%
5,O=C(NCCc1ccccn1)c1ccc2[nH]c3c(c2c1)CN(C(=O)C1CCC1)CC3 [SN00798214],0.0%
6,COc1ccc(S(=O)(=O)N2CCN(Cc3ccc(C)cc3)c3ncccc32)cc1 [SN00790428],10.3%
7,O=C(c1ccco1)N1CCC(NS(=O)(=O)c2ccc(Cl)cc2)CC1 [SN00795232],0.0%
8,Cc1nc(C2CCN(C(=O)Nc3ccccc3)CC2)sc1C(=O)N1CCCCCC1 [SN00798241],0.0%
9,CN(C)[C@@H]1CN(Cc2ccc3[nH]ccc3c2)CC[C@H]1CO [SN00801277],6.2%
10,O=C(c1nnn(-c2ccc(Cl)cc2)c1-c1cccnc1)N1CCCCC1 [SN00796543],20.4%
11,COc1ccc(Cn2cccc2C2=NC(C)(C)CO2)cc1 [SN00784853],19.2%
12,CC1(C(=O)NCc2ccccc2)Cn2c(ccc2-c2ccco2)C(=O)N1CCc1ccco1 (centres unmarked) [SN00787709],0.0%
13,CC(=O)c1ccc(NC(=O)C2CC(=O)N=C(N3CCN(Cc4ccc5c(c4)OCO5)CC3)N2)cc1 (centres unmarked) [SN00788633],6.8%
14,Cn1ncc2c1CCCC2NC(=O)N1CCCCC(N2CCCC2)C1 (centres unmarked) [SN00781466],13.9%
15,Cc1cccc(C)c1NC(=O)c1cc(-c2ccccc2)nc2c1cnn2Cc1cccnc1 [SN00776937],17.5%
16,CCc1ccc(NC(=O)N2CCc3c(c(-c4nc(C)no4)nn3C)C2)cc1 [SN00796748],19.4%
17,COc1ccc(-c2nnc(-c3cccnc3N3CCN(C(=O)c4cccc(OC)c4)CC3)o2)cc1 [SN00797707],2.3%
18,Cc1csc(-n2nc(C)c(CC(=O)N3CCN(c4ccccc4)CC3)c2O)n1 [SN00786646],34.3%
19,COc1cccc(C(=O)n2nc(-c3cccnc3)nc2NCc2ccc(C)cc2)c1 [SN00788624],24.5%
20,Cc1nc(C)c2c(n1)N(CCN(C)C1CCCCC1)C(=O)CC2 [SN00802202],0.0%
21,CCN1CCCN(c2ncnc3c2c(Br)nn3C)CC1 [SN00782469],4.4%
22,O=C(c1cccc(N2CCNC(c3ccccc3)C2)n1)N1CCN(c2ccccc2)CC1 (centres unmarked) [SN00800322],13.5%
23,CN1C(=O)c2cc(C(=O)NCCCc3ccccc3)nn2CC1(C)C(=O)NC1CCCC1 (centres unmarked) [SN00788236],0.6%
24,Cc1cccc(-c2noc(CN3CC(n4cc(C)cn4)C3)n2)c1 [SN00772979],6.1%
25,CC(=O)Oc1ccc(C(=O)Nc2ccc3nc(-c4ccc(Cl)cc4)oc3c2)cc1 [SN00783571],0.0%
26,Fc1cccc(Nc2c3c(nc4ccccc24)CCC3)c1 [SN00784170],66.2%

row,SMILES,% Inhibition n=1 48h
1,CCn1c(Cn2cccn2)nc2cc(NC(C)=O)ccc21 [SN00786137],11.6%
2,COc1ccc(-c2noc(CC(=O)N3CCN(c4ccccn4)CC3)n2)cc1 [SN00787724],23.4%
3,Cn1cnc2c1CCN(Cc1csc(-c3ccco3)n1)C2 [SN00781992],24.5%
4,O=c1c(Br)c(N2CCCCC2)cnn1-c1ccccc1 [SN00775416],8.1%
5,CCc1nnc2n1CCN(Cc1csc(-c3ccsc3)n1)C2 [SN00782656],24.2%
6,CCCNC(=O)c1cc(-c2ccc(F)cc2)on1 [SN00784460],0.0%
7,Cc1noc(-c2c(C)sc(C)c2S(=O)(=O)NCc2ccccc2)c1C [SN00789144],30.5%
8,COc1cccc(Nc2nc(N3CCN(c4ccccc4)CC3)nc3c2cnn3C)c1 [SN00788187],5.8%
9,CN(CC1CCOC1)C(=O)Cc1ccccc1 (centres unmarked) [SN00801209],0.0%
10,O=C1CCCN1CC1CCCCN1c1cc(Cl)c(C(F)(F)F)cc1[N+](=O)[O-] (centres unmarked) [SN00780038],9.6%
11,CCn1nccc1C(=O)NC1CCN(c2nccnc2OC)C1 (centres unmarked) [SN00801093],0.0%
12,O=C(Cn1c(=O)c(=O)n(Cc2ccccc2)c2ccccc21)NCCCN1CCCC1 [SN00792985],20.3%
13,Cn1cc(C(=O)N2CCCC2C2CCCCC2)ccc1=O (centres unmarked) [SN00779264],13.1%
14,CSc1ccc(-c2csc(CN3CCN(C(C)=O)CC3)n2)cc1 [SN00778360],12.1%
15,Cc1ccc(-c2nnc(-c3cccnc3N3CCCC3)o2)cc1 [SN00797693],0.0%
16,O=C(c1ccccc1)N1CCN(C(=O)c2ccc3noc(-c4ccccc4)c3c2)CC1 [SN00777400],15.8%
17,COc1cccc(C(=O)N(CC2CCOC2)C2CC2)c1 (centres unmarked) [SN00801182],0.0%
18,COc1ccc(-c2noc(-c3cc(-c4cccs4)n[nH]3)n2)cc1 [SN00791300],15.5%
19,Cc1sc2nc(CN3CCC(C)CC3)nc(N(C)Cc3nc4ccsc4c(=O)[nH]3)c2c1C [SN00775403],11.1%
20,Cc1ccc(Cn2ccc3nc(N4CCCCC4)ncc3c2=O)cc1 [SN00802904],15.1%
21,Cn1c(C(=O)N2CCN(c3ccccc3)CC2)cc2c1CCN(Cc1ccccc1)C2 [SN00799590],1.6%
22,CC(=O)N1CCc2cc(C(=O)CN3CC(C)CC(C)C3)ccc21 (centres unmarked) [SN00785210],19.3%
23,CCN1CCN(c2ccc3nnc(C(C)C)n3n2)CC1 [SN00803240],0.4%
24,Cc1nc(N(C)C)cc(N2CCN(C(=O)Nc3cccc(C(F)(F)F)c3)CC2)n1 [SN00786482],55.4%
25,CC(C)n1ncc2c(C(=O)N3CCC(NS(=O)(=O)c4cccs4)CC3)cc(C3CC3)nc21 [SN00770479],0.0%
26,CCOc1ccc(-n2c(=O)c3sc4ncccc4c3n(CC(=O)NC3CCCCC3)c2=O)cc1 [SN00790499],13.5%

row,SMILES,% Inhibition n=1 48h
1,O=C(c1cn2ccccc2n1)N1CCN(c2ccccc2F)CC1 [SN00799900],4.9%
2,COc1cccc(CNC(=O)C2CCCN(c3nccc4c(C)nn(C)c34)C2)c1 (centres unmarked) [SN00797953],0.0%
3,Cc1cccc(C(=O)Nc2cnc(N3CCNCC3)c(C(=O)N(CC(C)C)CC(C)C)c2)c1 [SN00795320],14.5%
4,O=c1c2ccsc2ncn1Cc1noc(-c2ccsc2)n1 [SN00779979],0.0%
5,CN1CCC(OC2CCN(C(=O)CC3CCCC3)CC2)CC1 [SN00801545],26.4%
6,CCN1CCc2[nH]c3ccc(NC(=O)c4ccn(CC)n4)cc3c2C1 [SN00798224],1.1%
7,Cc1ccc(S(=O)(=O)[C@H]2CS(=O)(=O)C[C@@H]2N2CCC(C(N)=O)CC2)cc1 (relative stereo) [SN00786616],0.0%
8,O=C(c1cnccn1)N1CCCC1c1nc(-c2ccccc2)no1 (centres unmarked) [SN00801675],0.0%
9,Cc1c(C(=O)Nc2cc(-c3ccncc3)n[nH]2)cccc1[N+](=O)[O-] [SN00776775],37.2%
10,Cc1nn(-c2nc(-c3ccccc3)cs2)c(O)c1CC(=O)N1CCN(c2ccc(F)cc2)CC1 [SN00786652],0.0%
11,Cn1c(=O)n(CC(=O)C(C)(C)C)c(=O)c2c1nc1oc(C(C)(C)C)cn12 [SN00779257],18.6%
12,CCCn1ccc2sc(C)c(C(=O)NC3CCCCC3)c2c1=O [SN00799943],16.0%
13,Cc1ccc(C2(C)NC(=O)N(Cc3ncc(-c4ccccc4)o3)C2=O)cc1 (centres unmarked) [SN00774002],0.0%
14,O=C(c1cn2ccnc(-c3ccccc3)c2n1)N1CCCCC1 [SN00801929],30.6%
15,CCc1ccc(C(=O)N2CCC(Cc3nc(-c4ccc(OC)cc4)no3)CC2)cc1 [SN00801692],0.0%
16,O=C(Nc1cccc(O)c1)c1cc(-c2cccnc2)on1 [SN00784502],24.5%
17,Cc1cccc(-n2c(CN3CCN(C(=O)NCC4CCCO4)CC3)nc3cccnc32)c1 (centres unmarked) [SN00796109],0.7%
18,Cc1ccc(-c2nc3ncccn3c2NC(=O)c2ccc(C(F)(F)F)cc2)cc1 [SN00793355],13.4%
19,Cc1sc(C(=O)N2CCCC2)c2ncnc(NCc3ccc(F)c(Cl)c3)c12 [SN00803192],23.9%
20,Cc1nc(-c2ccccn2)cc2nn(CC(=O)N3CCC(Cc4ccccc4)CC3)c(=O)n12 [SN00799441],4.9%
21,Cc1nn(Cc2csc(-c3ccsc3)n2)c(C)c1S(=O)(=O)N1CCc2ccccc21 [SN00774089],7.1%
22,O=C(Cn1c(=O)c2nncn2c2ncccc21)N1CCN(c2cccc(Cl)c2)CC1 [SN00799155],17.9%
23,COc1ccc(-c2cc3c(=O)n(Cc4cccc(F)c4)ccn3n2)cc1 [SN00793208],0.0%
24,CC(=O)c1cc2c(cc1NC(=O)c1cn(-c3ccc(F)cc3)nn1)OCO2 [SN00786071],7.4%
25,CCCc1noc(Cn2c(-c3ccc(OC)c(OC)c3)noc2=O)n1 [SN00781301],0.0%

# Same assay, conditions: 48 h, re-assessment
row,SMILES,% Inhibition n=2 48h
1,Fc1cccc(Nc2c3c(nc4ccccc24)CCC3)c1 [SN00784170],44.9%
2,Cc1nc(N(C)C)cc(N2CCN(C(=O)Nc3cccc(C(F)(F)F)c3)CC2)n1 [SN00786482],2.9%
3,Cc1c(C(=O)Nc2cc(-c3ccncc3)n[nH]2)cccc1[N+](=O)[O-] [SN00776775],5.6%
